Reference: EP2451450B1, “Inhibitors of proline racemase enzymes for the treatment of Trypanosoma spp infections” (Institut Pasteur, priority 2009, dated 2011)

Tests used:
[1] = system: T.cruzi CL Brener (clone F11-F5); assay: Vero cell infection by trypomastigotes in the presence of inhibitor (17h), Giemsa scoring; type: cell-based; design: key to Endocytic index / Endocytic index (EI): EI = % infected cells × mean parasites per infected cell; details: for Mean number of parasites/ cell: 1,5 at 0; for % Infected cells: 38,6 at 0; for Endocytic index: 57 at 0
Method: Vero cells (from green monkey kidney) were seeded at a density of 15x10^6 cells per 25cm^2 culture flasks or at 5 x10^4 cells/well into LabTek slides. The cultures were maintained in RPMI 1640 medium supplemented with 5% fetal bovine serum and kept at 37°C in an atmosphere of 5% CO2. Cell culture-derived trypomastigotes from T.cruzi CL Brener (clone F11-F5) were isolated from the supernatant of Vero cells, which had been previously infected with bloodstream trypomastigotes. Vero cell cultures were infected for 17h at 37°C with cultured trypomastigotes at a 10:1 parasite/cell ratio in the presence or in the absence of increasing doses of freshly made dilutions (3-30 µM) of (E)-4-oxopent-2-enoic acid (OxoPA) and its derivative (E)-5-bromo-4-oxopent-2-enoic acid (Br-OxoPA), previously dissolved in dimethyl sulfoxide (DMSO). For comparison, cultures were seeded with or without 10-1000 µM specific proline racemase inhibitor pyrrole-2-carboxylic acid (PYC) also diluted in DMSO. To verify if proline racemase inhibitors could also exert an effect on the parasite intracellular cycle after 17 hours of parasite-host cell interaction, all the wells were then rinsed three times to eliminate all extracellular parasites and new medium was added to the cultures that were incubated for up to 48 hours with fresh dilutions of the inhibitor compounds. After the different treatments, cultures were washed with PBS, fixed and stained with Giemsa. The numbers of infected host cells and of parasites per infected cell were then scored in at least 400 host cells in independent experiments, run in duplicate. Results are expressed as the percentage of infected cells, the mean number of parasites per infected cell or by the endocytic index (EI) which represents the percentage of infected cells multiplied by the mean number of parasites per infected cell.
Vero cells (from green monkey kidney) were seeded at a density of 15x10^6 cells per 25cm^2 culture flasks or at 5 x10^4 cells/well into LabTek slides. The cultures were maintained in RPMI 1640 medium supplemented with 5% fetal bovine serum and kept at 37°C in an atmosphere of 5% CO2. Cell culture-derived trypomastigotes from T.cruzi CL Brener (clone F11-F5) were isolated from the supernatant of Vero cells, which had been previously infected with bloodstream trypomastigotes. LabTek wells were infected for 17h at 37°C with cultured trypomastigotes at a 10:1 parasite/cell ratio in the presence or in the absence of increasing doses of a freshly made dilutions of 3-30 µM of OxoPA or Br-OxoPA molecules. Cultures were washed, fixed and stained with Giemsa. *At this stage, for comparison, results obtained from cultures seeded with or without 10-1000 µM specific proline racemase inhibitor pyrrole-2-carboxylic acid (PYC) are shown and were obtained from our previous work. Endocytic index was calculated as the % of infected cells X the mean number of intracellular parasites per infected cell. Nd = Not done

[2] = molecular target: T1, TcPRAC (Trypanosoma cruzi, UniProt Q4DA80); assay: L-proline racemization assay, formed D-proline determined by DAAOx test; type: biochemical; details: ligand 10 µM; 10 mM L-proline; 22.4 mg/ml TcPRAC; 5.0mM without ligand
T1 construct: implied only by nickel IMAC purification; made in house; host or cells: E. coli BL21 (DE3)
T1 sequence (Q4DA80 32-423): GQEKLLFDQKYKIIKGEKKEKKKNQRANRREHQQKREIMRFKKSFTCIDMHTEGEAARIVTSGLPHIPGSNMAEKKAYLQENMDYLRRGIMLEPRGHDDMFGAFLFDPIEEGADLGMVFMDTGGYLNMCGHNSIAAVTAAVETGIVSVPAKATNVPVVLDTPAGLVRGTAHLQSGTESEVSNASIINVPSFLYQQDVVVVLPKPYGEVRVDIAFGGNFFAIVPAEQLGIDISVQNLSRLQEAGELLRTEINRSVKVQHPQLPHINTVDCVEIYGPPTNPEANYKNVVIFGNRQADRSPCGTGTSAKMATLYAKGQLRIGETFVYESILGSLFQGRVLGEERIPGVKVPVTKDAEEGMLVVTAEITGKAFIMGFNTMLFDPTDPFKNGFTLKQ
Method: Briefly, classical assays of Proline racemization induced by TcPRAC were performed in tubes in a final volume of 1.5 ml and optical rotations measured in a polarimeter 241MC (Perkin Elmer). Parallel assays of Proline racemization were transposed into microplates in a final volume of 100 µl, as follows: serial dilutions of L- Proline ranging from 40 mM to 2.5 mM were prepared in 0.2 M sodium acetate pH 6.0 containing 0.25 mM rTcPRAC and loaded into microplate wells in the presence or in the absence of 0 - 20 µM pyrrole-2 carboxylic acid (PYC) or of similar dilutions of unknown potential inhibitors. Specific control wells were included omitting the TcPRAC and/or the PYC.
Microplates were incubated for 30 minutes at 37° C. Enzyme activity was then inactivated by heating the plate for 15 seconds in a microwave oven at 900 watts after shifting the pH of wells to 8.3 by addition of 6.8 µl of 0.235 M sodium Pyrophosphate. 50 µl of each well were used to test the presence of D-Proline using the DAAOx (D-amino acid oxidase) test described below. L- amino acids may react at very low rate with DAAOx. For instance, DAAOx reacts with L-Proline 300 times slower than D-Proline. Consequently, when assessing amino acid racemization products, standards should consist of serial dilution of equimolar mixtures of specific D- and L-amino acids ranging from 0 to 20 mM (10 mM final) to take into account any interference of possible reactivity with DAAOx of the L- form of amino acids present in the samples.
Solution A consisting of 0.2 M sodium acetate/0.016 M sodium pyrophosphate (Pop) buffer, pH 8.3 was used to prepare the enzyme stock solutions conserved in 50% glycerol, namely: 50 U/ml D-amino acid oxidase from pig kidney (DAAOx, Sigma) and 5000 U/ml Horse Raddish Peroxydase (HRP, Sigma). Stock solutions of L- proline (1M), D- proline (1M) and Pyrrole-2-carboxylic acid (10 mM) (PYC, Sigma) are also prepared in solution A. 10^-1 M FAD (Sigma) stock was prepared in water. Solution B consists in adding to solution A the following reagents at a final concentration in the assay of 1 U/ml for DAAOx, 0.5 mg/ml orthophenylenediamine (OPD, Sigma), 37.5 U/ml HRP and FAD (1.5x10^-5 M FAD). The test is run in 96 wells micro plates (Nunc, Denmark). […] OD 490nm - 650nm is obtained with a microtiter plate reader (Molecular Devices), and compared to those obtained with blank control wells.
The values presented in Table 2A correspond to racemization reactions performed in the absence or in the presence of 10 µM concentration of the different ligands. […] Briefly, 22.4 mg/ml of active TcPRAC was used in the racemization assays of 10 mM L-proline substrate and the concentration of formed D-proline was determined by the DAAOx test, as described in the Material and Methods. […]

[3] = Inhibitor concentration (µM) 30, Table 5

SMILES	Mean number of parasites/ cell ([1]; 3 µM)	% Infected cells ([1]; 3 µM)	Endocytic index ([1]; 3 µM)	Mean number of parasites/ cell ([1]; 10 µM)	% Infected cells ([1]; 10 µM)	Endocytic index ([1]; 10 µM)	Mean number of parasites/ cell ([1]; 30 µM)	% Infected cells ([1]; 30 µM)	Endocytic index ([1]; 30 µM)	Endocytic index (EI) ([1]; Inhibitor concentration (µM) 10, Table 5)	Endocytic index (EI) [1, 3]	lower doses necessary to obtain the same endocytic index (EI) as with PYC ([1]; Table 5) [fold]	lower doses necessary to obtain the same endocytic index (EI) as with PYC ([1]; versus 1000 µM PYC) [times]	Formed D-Proline [2]
O=C(O)/C=C/C(=O)CBr [Br-OxoPA, (E)-5-bromo-4-oxopent-2-enoic acid]	2,0	37,7%	77,7	1,8	23,5%	42,3	1,6	13,5%	28,7	42	29	30	30	< 0,3 mM
CC(=O)/C=C/C(=O)O [OxoPA, (E)-4-oxopent-2-enoic acid]	1,6	26,8%	41,8	1,4	16,6%	22,96	1,5	13,9%	21,5	–	21	100	100	< 0,3 mM
